Among the data in ChEMBL document CHEMBL1158463 (J Med Chem, 2009) are Activity values, retold here.

This series has as its system Canis familiaris. The series is described as follows: Toxicity in dog assessed as change in cardiovascular variables up to 5 mg/kg by telemetry study. In kind it is organism-based, Canis lupus familiaris, Heart. Set-up: dose 5 mg/kg. The note with it: in vivo.
Consider `CCc1ccc(OCc2ccccc2C(=O)Nc2ccc3nc(C)cc(N)c3c2)cc1`, for which the Activity result is listed as “Non-toxic”.

On to `O=C(NCCCN1CCC2(CC1)OCc1ccccc12)[C@H]1CCCN1Cc1ccccc1`, for which the Activity result was “Non-toxic”.

On to `O[C@H]1C[C@H](CN2CC[C@H](c3ccc(F)cc3Cl)[C@@H](O)C2)Cc2cccnc21`, for which the Activity entry was “Non-toxic”.

For `COC(=O)C1Cc2ccccc2N1C(=O)CCN1CCC2(CCc3ccccc32)CC1` (stereo not drawn), the Activity entry is “Non-toxic”.

For `CCN1CCN(c2cc3[nH]c(C(=O)[C@]4(C)CC[C@](C)(O)CC4)nc3cc2C)CC1`, the Activity result was “Non-toxic”.

In the case of `CN1CC(C(=O)NCCCN2CCC3(CCc4ccccc43)CC2)CC1=O` (stereo not drawn), the Activity result was “Non-toxic”.

As for `Cc1cccc2c1CC[C@H](CN1CCC(c3c(Cl)cccc3Cl)CC1)C[C@@H]2O`, the Activity entry is recorded as “Non-toxic”.

Take `Cc1ccc2nc(NC(=O)c3ccc(Cl)cc3)nc(N[C@H]3CCCC[C@H]3NC(=N)N)c2c1`: the Activity entry was “Non-toxic”.
